Reference: patent US5668182A, “Method of calming or sedating an animal with a hydroxy benzaldehyde compound” (priority 1996, dated 1997)
Read-outs that look alike come from different tables or passages of the source.

What was measured:
Format in all cases: in vivo
mice [1] = assay: Metrazol-induced seizures in mice (Example 5); conditions: for Death: Metrazol 90 mg/kg i.p. (vehicle 0/6); for Tonic Convulsion: Metrazol 90 mg/kg i.p. (vehicle 6/6)
Procedure: Mice were treated with vanillin (100, 200, or 300 mg/kg) or saline (0.9% NaCl) by i.p. injection. The treatment was followed either by injection of pentylenetetrazol ("Metrazol"), 80 or 90 mg/kg by i.p. injection (given 5 minutes after vanillin) or by exposure to a 1-second pulse of shock through electrodes clamped to the ears (5 minutes after vanillin). The end-points for both tests were the occurrence of a tonic (extensor) convulsion and/or death. Six mice were used per group for the Metrazol-induced seizure test, and five mice were used per group for the electroshock-induced seizure test.

mice [2] = assay: Inverted screen test in mice (Example 4); conditions: for ED50: Mus musculus, ip
Procedure: An inverted screen test was performed on mice to investigate the effect of vanillin and vanillin analogs on muscular function. After i.p. injection of vanillin or vehicle, each mouse was placed on a wire screen (12.8 cm×12.8 cm with a 6 mm mesh size) and the screen was inverted. A positive effect was found if the drug caused the mouse to fall from the screen within 60 seconds. A negative effect was found if the mouse had the ability to climb from the underside of the screen to the top side of the screen within the 60 second time period. Hanging from the underside of the screen without falling but without climbing to the topside at 60 seconds is recorded as a one-half positive effect per the convention of Coughenour, L. L.; Mclean, J. R.; Parker, R. B., "A New Device for the Rapid Measurement of Impaired Motor Function in Mice," Pharmacol. Biochem. Behav., 6: 351-353; 1977. The test was performed at 2, 5, 10, and 30 minutes following administration of vanillin or vehicle. At each of those times, an ED-50 (and 95% confidence limits) was determined for vanillin. Six mice were used in each experimental group.
Several analogs of vanillin were also examined in this test. The chemical structures and chemical names for these compounds are described hereinabove.
The testing of these compounds was limited both by supply of compound and by solubility. Testing was performed at 2, 5, 10, 20 minutes after administration of drug or vehicle. The vehicles used to solubilize the analogs were as follows: 10% ethanol for TBJ1, TBJ2, and TBJ3; 3% ammonium hydroxide solution in saline for FSA (pH=9); 6.7% ammonium hydroxide in saline for TB17 (pH=9.3); and 20% ethanol, 1% ammonium hydroxide solution in saline for TB34 (pH=10.0). ED-50s of compounds (and 95% confidence limits) were calculated in cases where the data permitted the calculation.

rats = assay: Behavioral depression in rats after i.v. infusion (Example 1); conditions: for Grip Absent (number of rats): first figure of cell; for Grip Weak (number of rats): second figure of cell
Procedure: To assess behavioral depression in rats as induced by vanillin, male and female rats, five of each gender at each dose, were given doses of vanillin of 50, 100 or 200 mg/kg, respectively, or a control vehicle (0.9% sodium chloride in water) by intravenous (i.v.) infusion. Therefore, there were four groups of rats with ten rats per group tested at each dosage. The solution was infused into a tail vein through a butterfly cannula, with the infusion being performed at a constant rate over a 5-minute period using a Harvard infusion pump.
The evaluations were performed on days 1, 3, 5 and 9 of vanillin administration.

[3] = 50 mg/kg i.v., day 1, <2 min, 10 rats per group
[4] = highest dose (200 mg/kg i.v.), day 1
[5] = highest dose (200 mg/kg i.v.), days 5 and 9

In the case of `COc1cc(C=O)ccc1O` [vanillin, 4-hydroxy-3-methoxybenzaldehyde], the “protection versus Metrazol-induced seizures” value (mice [1]; 300 mg/kg) is reported as “some protection”, the anticonvulsant activity (mice [1]; particularly at higher doses, data of Table 5) is reported as “some mild anticonvulsant activity” and the Death (mice [1]; vanillin 200 mg/kg i.p.) is reported as 2/6. The “Tonic Convulsion” value (mice [1]; vanillin 200 mg/kg i.p.) was 5/6, the Death (mice [1]; vanillin 300 mg/kg i.p.) was 0/6 and the “Tonic Convulsion” value (mice [1]; vanillin 300 mg/kg i.p.) was 1/6. For the same molecule, the ED50 (mice [2]; 2 min, 2 min post-treatment, read-out: ED-50 (95% confidence limits)) was 112 mg/kg, the ED50 (mice [2]; 5 min, 5 min post-treatment, read-out: ED-50 (95% confidence limits)) was 104 mg/kg and the ED50 (mice [2]; 10 min, 10 min post-treatment, read-out: ED-50 (95% confidence limits)) was 112 mg/kg. For the same molecule, the ED50 (mice [2]; 10 min, first 10 minutes after injection, read-out: ED-50) was about 100 mg/kg, the ED50 (mice [2]; 0.5 h, 30 min post-treatment, read-out: ED-50 (95% confidence limits)) was 748 mg/kg and the “change of potency with time” value (mice [2]; between 10 and 30 minutes after injection) was “declined precipitously”. The “Ambulation Absent (number of rats)” value (rats; 50 mg/kg i.v., day 1, 10 min) was 0, the “Sign of depression: Score > 0 (number of rats)” value (“Sign of depression” below) (rats; 50 mg/kg i.v., day 1, 10 min, 10 rats per group) was 0 and the “Grip Absent (number of rats)” value (rats; 50 mg/kg i.v., day 1, 10 min) was 0. For the same molecule, the “Grip Weak (number of rats)” value (rats; 50 mg/kg i.v., day 1, 10 min) was 0, the “Ambulation Absent (number of rats)” value (rats; 50 mg/kg i.v., day 1, 20 min) was 0 and the “Sign of depression” value (rats; 50 mg/kg i.v., day 1, 20 min, 10 rats per group) was 0. The “Grip Absent (number of rats)” value (rats; 50 mg/kg i.v., day 1, 20 min) was 0, the “Grip Weak (number of rats)” value (rats; 50 mg/kg i.v., day 1, 20 min) was 0 and the “Ambulation Absent (number of rats)” value (rats; 50 mg/kg i.v., day 1, 30 min) was 0. The “Sign of depression” value (rats; 50 mg/kg i.v., day 1, 30 min, 10 rats per group) was 0, the “Grip Absent (number of rats)” value (rats; 50 mg/kg i.v., day 1, 30 min) was 0 and the “Grip Weak (number of rats)” value (rats; 50 mg/kg i.v., day 1, 30 min) was 0. For the same molecule, the “Ambulation Absent (number of rats)” value (rats; 50 mg/kg i.v., day 1, 45 min) was 0, the “Sign of depression” value (rats; 50 mg/kg i.v., day 1, 45 min, 10 rats per group) was 0 and the “Grip Absent (number of rats)” value (rats; 50 mg/kg i.v., day 1, 45 min) was 0. For the same molecule, the “Grip Weak (number of rats)” value (rats; 50 mg/kg i.v., day 1, 45 min) was 0, the “Ambulation Absent (number of rats)” value (rats; [3]) was 0 and the “Grip Absent (number of rats)” value (rats; [3]) was 0. For the same molecule, the “Grip Weak (number of rats)” value (rats; [3]) was 1, the “Sign of depression” value (rats; 50 mg/kg i.v., day 1, <2 min after treatment, 10 rats per group) was 0 and the “Ambulation Absent (number of rats)” value (rats; 100 mg/kg i.v., day 1, 10 min) was 0. For the same molecule, the “Sign of depression” value (rats; 100 mg/kg i.v., day 1, 10 min, 10 rats per group) was 0, the “Grip Absent (number of rats)” value (rats; 100 mg/kg i.v., day 1, 10 min) was 0 and the “Grip Weak (number of rats)” value (rats; 100 mg/kg i.v., day 1, 10 min) was 2. For the same molecule, the “Ambulation Absent (number of rats)” value (rats; 100 mg/kg i.v., day 1, 20 min) was 0, the “Sign of depression” value (rats; 100 mg/kg i.v., day 1, 20 min, 10 rats per group) was 0 and the “Grip Absent (number of rats)” value (rats; 100 mg/kg i.v., day 1, 20 min) was 0. For the same molecule, the “Grip Weak (number of rats)” value (rats; 100 mg/kg i.v., day 1, 20 min) was 0, the “Ambulation Absent (number of rats)” value (rats; 100 mg/kg i.v., day 1, 30 min) was 0 and the “Sign of depression” value (rats; 100 mg/kg i.v., day 1, 30 min, 10 rats per group) was 0. For the same molecule, the “Grip Absent (number of rats)” value (rats; 100 mg/kg i.v., day 1, 30 min) was 0, the “Grip Weak (number of rats)” value (rats; 100 mg/kg i.v., day 1, 30 min) was 0 and the “Ambulation Absent (number of rats)” value (rats; 100 mg/kg i.v., day 1, 45 min) was 0. For the same molecule, the “Sign of depression” value (rats; 100 mg/kg i.v., day 1, 45 min, 10 rats per group) was 0, the “Grip Absent (number of rats)” value (rats; 100 mg/kg i.v., day 1, 45 min) was 0 and the “Grip Weak (number of rats)” value (rats; 100 mg/kg i.v., day 1, 45 min) was 0. The “Ambulation Absent (number of rats)” value (rats; 100 mg/kg i.v., day 1, <2 min) was 0, the “Grip Absent (number of rats)” value (rats; 100 mg/kg i.v., day 1, <2 min) was 0 and the “Grip Weak (number of rats)” value (rats; 100 mg/kg i.v., day 1, <2 min) was 6. For the same molecule, the “Sign of depression” value (rats; 100 mg/kg i.v., day 1, <2 min after treatment, 10 rats per group) was 0, the “Ambulation Absent (number of rats)” value (rats; 200 mg/kg i.v., day 1, 10 min) was 0 and the “Sign of depression” value (rats; 200 mg/kg i.v., day 1, 10 min, 10 rats per group) was 0. For the same molecule, the “Grip Absent (number of rats)” value (rats; 200 mg/kg i.v., day 1, 10 min) was 0, the “Grip Weak (number of rats)” value (rats; 200 mg/kg i.v., day 1, 10 min) was 8 and the “Ambulation Absent (number of rats)” value (rats; 200 mg/kg i.v., day 1, 20 min) was 0. The “Sign of depression” value (rats; 200 mg/kg i.v., day 1, 20 min, 10 rats per group) was 0, the “Grip Absent (number of rats)” value (rats; 200 mg/kg i.v., day 1, 20 min) was 0 and the “Grip Weak (number of rats)” value (rats; 200 mg/kg i.v., day 1, 20 min) was 8. The “Ambulation Absent (number of rats)” value (rats; 200 mg/kg i.v., day 1, 30 min) was 0, the “Sign of depression” value (rats; 200 mg/kg i.v., day 1, 30 min, 10 rats per group) was 0 and the “Grip Absent (number of rats)” value (rats; 200 mg/kg i.v., day 1, 30 min) was 0. For the same molecule, the “Grip Weak (number of rats)” value (rats; 200 mg/kg i.v., day 1, 30 min) was 5, the “Ambulation Absent (number of rats)” value (rats; 200 mg/kg i.v., day 1, 45 min) was 0 and the “Sign of depression” value (rats; 200 mg/kg i.v., day 1, 45 min, 10 rats per group) was 0. The “Grip Absent (number of rats)” value (rats; 200 mg/kg i.v., day 1, 45 min) was 0, the “Grip Weak (number of rats)” value (rats; 200 mg/kg i.v., day 1, 45 min) was 2 and the “Ambulation Absent (number of rats)” value (rats; 200 mg/kg i.v., day 1, <2 min) was 5. For the same molecule, the “Grip Absent (number of rats)” value (rats; 200 mg/kg i.v., day 1, <2 min) was 10, the “Grip Weak (number of rats)” value (rats; 200 mg/kg i.v., day 1, <2 min) was 10 and the “Sign of depression” value (rats; 200 mg/kg i.v., day 1, <2 min after treatment, 10 rats per group) was 3. The “rats rated with depression scores above zero” value (rats; days 5 and 9) was “no rats”, the “time for diminished grip to return to normal” value (rats; days 5 and 9, almost all rats with diminished grip) was at most 20 min and the “tolerance to depressant effects” value (rats; days 5 and 9, i.v.) was “some suggestion of tolerance”. For the same molecule, the “effect on grip strength” value (rats; [4]) was “obliterated”, the “persistence of slight effect on grip strength” value (rats; [4]) was at least 45 min and the “rats displaying absence of grip” value (rats; [5]) was 4 of 10. The “rats exhibiting no muscular or motor impairment at all” value (rats; [5]) was 1, the “time for return of ability to walk” value (rats; i.v., highest dose 200 mg/kg, day 1, some of the rats) was “less than 10 minutes” and the “persistence of eye closure” value (rats; intermediate and high dose groups i.v., several rats) was “up to 45 minutes”. The “time to appearance of eye closure” value (rats; intermediate and high dose groups i.v., several rats, typically) was at most 10 min, the “effect on grip strength” value (rats; intermediate dose (100 mg/kg i.v.), day 1) was “weakened in most rats” and the “effects on righting reflex and on motor coordination” value (rats; vanillin given alone, rats) was “mild and transient”.
